In the NIST ThermoML archive (doi:10.1016/j.jct.2003.11.008):

Assays:
[1] = refractive index (Na D-line) (dimensionless); conditions: 318.15 K; 101.33 kPa; Liquid; Standard Abbe refractometry
[2] = 318.15 K; 101.33 kPa; Liquid; Vibrating tube method
[3] = xn = mol fraction of the nth substance listed; conditions: 318.15 K, 101.3 kPa, Liquid
[4] = excess molar enthalpy (molar enthalpy of mixing); xn = mol fraction of the nth substance listed; conditions: 318.15 K, 101.3 kPa, Liquid

CCCCCCCCCCCCC [tridecane]
Conditions | mass density [kg/m3] | refractive index
[1] | – | 1.4155
[2] | 738.34 | –

CCCCCCCCC [nonane]
Conditions | mass density [kg/m3] | refractive index
[1] | – | 1.3939
[2] | 698.06 | –

CCCCCOC(C)=O [pentyl ethanoate]
Conditions | mass density [kg/m3] | refractive index
[1] | – | 1.391
[2] | 852.93 | –

CCOC(C)=O [ethyl acetate]
Conditions | mass density [kg/m3] | refractive index
[1] | – | 1.3597
[2] | 869.54 | –

CCCCCCCCCCCCCCC [pentadecane]
Conditions | mass density [kg/m3] | refractive index
[1] | – | 1.4212
[2] | 750.9 | –

CCCCCCCCCCCCCCCCC [heptadecane] + CCOC(C)=O
Conditions | excess molar enthalpy [kcal/mol] | excess molar volume [m3/mol]
[3], x2 = 0.1461 | – | 6.4e-07
[3], x2 = 0.2562 | – | 1.04e-06
[3], x2 = 0.3512 | – | 1.284e-06
[3], x2 = 0.4324 | – | 1.449e-06
[3], x2 = 0.5057 | – | 1.538e-06
[3], x2 = 0.5143 | – | 1.548e-06
[3], x2 = 0.5756 | – | 1.565e-06
[3], x2 = 0.5814 | – | 1.562e-06
[3], x2 = 0.6778 | – | 1.503e-06
[3], x2 = 0.7269 | – | 1.41e-06
[3], x2 = 0.7898 | – | 1.273e-06
[3], x2 = 0.8421 | – | 1.081e-06
[3], x2 = 0.903 | – | 7.83e-07
[3], x2 = 0.9457 | – | 5.1e-07
[3], x2 = 0.9685 | – | 3.18e-07
[4], x2 = 0.0911 | 0.136 | –
[4], x2 = 0.1754 | 0.245 | –
[4], x2 = 0.2543 | 0.345 | –
[4], x2 = 0.3274 | 0.415 | –
[4], x2 = 0.394 | 0.467 | –
[4], x2 = 0.4566 | 0.506 | –
[4], x2 = 0.512 | 0.525 | –
[4], x2 = 0.558 | 0.534 | –
[4], x2 = 0.6007 | 0.531 | –
[4], x2 = 0.634 | 0.523 | –
[4], x2 = 0.6486 | 0.519 | –
[4], x2 = 0.6818 | 0.504 | –
[4], x2 = 0.7172 | 0.485 | –
[4], x2 = 0.7538 | 0.463 | –
[4], x2 = 0.7913 | 0.426 | –
[4], x2 = 0.8271 | 0.392 | –
[4], x2 = 0.8653 | 0.342 | –
[4], x2 = 0.9018 | 0.287 | –
[4], x2 = 0.9382 | 0.22 | –
[4], x2 = 0.9719 | 0.121 | –

CCCCOC(C)=O [butyl ethanoate] + CCCCCCC
Conditions | excess molar enthalpy [kcal/mol] | excess molar volume [m3/mol]
[3], x1 = 0.0555 | – | 1.92e-07
[3], x1 = 0.1132 | – | 3.36e-07
[3], x1 = 0.1672 | – | 4.34e-07
[3], x1 = 0.22 | – | 5.12e-07
[3], x1 = 0.2722 | – | 5.77e-07
[3], x1 = 0.3229 | – | 6.09e-07
[3], x1 = 0.3726 | – | 6.31e-07
[3], x1 = 0.4298 | – | 6.52e-07
[3], x1 = 0.4755 | – | 6.52e-07
[3], x1 = 0.5265 | – | 6.24e-07
[3], x1 = 0.5779 | – | 5.89e-07
[3], x1 = 0.6271 | – | 5.55e-07
[3], x1 = 0.6607 | – | 5.13e-07
[3], x1 = 0.7709 | – | 3.86e-07
[3], x1 = 0.8611 | – | 2.64e-07
[3], x1 = 0.9342 | – | 1.22e-07
[4], x1 = 0.0596 | 0.0656 | –
[4], x1 = 0.1274 | 0.12 | –
[4], x1 = 0.1982 | 0.165 | –
[4], x1 = 0.2667 | 0.196 | –
[4], x1 = 0.3335 | 0.218 | –
[4], x1 = 0.3922 | 0.23 | –
[4], x1 = 0.4492 | 0.235 | –
[4], x1 = 0.5003 | 0.236 | –
[4], x1 = 0.5104 | 0.235 | –
[4], x1 = 0.5381 | 0.234 | –
[4], x1 = 0.5567 | 0.232 | –
[4], x1 = 0.6057 | 0.224 | –
[4], x1 = 0.6593 | 0.211 | –
[4], x1 = 0.7144 | 0.19 | –
[4], x1 = 0.7729 | 0.161 | –
[4], x1 = 0.8331 | 0.126 | –
[4], x1 = 0.8932 | 0.0849 | –
[4], x1 = 0.9488 | 0.0439 | –

CCCCCCCCCCC [undecane] + CCOC(C)=O
Conditions | excess molar enthalpy [kcal/mol] | excess molar volume [m3/mol]
[3], x2 = 0.0632 | – | 3.65e-07
[3], x2 = 0.1076 | – | 5.64e-07
[3], x2 = 0.1921 | – | 8.99e-07
[3], x2 = 0.2759 | – | 1.151e-06
[3], x2 = 0.3521 | – | 1.328e-06
[3], x2 = 0.4213 | – | 1.429e-06
[3], x2 = 0.4771 | – | 1.49e-06
[3], x2 = 0.5319 | – | 1.504e-06
[3], x2 = 0.5859 | – | 1.504e-06
[3], x2 = 0.6355 | – | 1.461e-06
[3], x2 = 0.6817 | – | 1.385e-06
[3], x2 = 0.7223 | – | 1.311e-06
[3], x2 = 0.7656 | – | 1.17e-06
[3], x2 = 0.7889 | – | 1.147e-06
[3], x2 = 0.8628 | – | 8.46e-07
[3], x2 = 0.9234 | – | 5.39e-07
[3], x2 = 0.9664 | – | 2.63e-07
[4], x2 = 0.1003 | 0.149 | –
[4], x2 = 0.1944 | 0.252 | –
[4], x2 = 0.2921 | 0.343 | –
[4], x2 = 0.3767 | 0.402 | –
[4], x2 = 0.4501 | 0.433 | –
[4], x2 = 0.509 | 0.443 | –
[4], x2 = 0.5537 | 0.441 | –
[4], x2 = 0.5965 | 0.436 | –
[4], x2 = 0.6065 | 0.433 | –
[4], x2 = 0.6498 | 0.413 | –
[4], x2 = 0.6942 | 0.39 | –
[4], x2 = 0.7366 | 0.364 | –
[4], x2 = 0.7848 | 0.326 | –
[4], x2 = 0.8361 | 0.272 | –
[4], x2 = 0.8884 | 0.206 | –
[4], x2 = 0.9357 | 0.141 | –
[4], x2 = 0.9742 | 0.0596 | –

COC(C)=O [methyl ethanoate]
Conditions | mass density [kg/m3] | refractive index
[1] | – | 1.349
[2] | 900.1 | –

CCCCCCCCCCCCCCCCC [heptadecane]
Conditions | mass density [kg/m3] | refractive index
[1] | – | 1.4268
[2] | 760.8 | –
